# Data reported in ChEMBL document CHEMBL3885881, “DrugMatrix”.
# Organism: Rattus norvegicus
# Experiment: DrugMatrix - Regimen: Daily Repeat
# Format: toxicity, organism-based, Sprague-Dawley
# Parameters: regimen Daily Repeat, gender Male, age 6-8 weeks
# Settings: in vivo, po, route oral GAVAGE, vehicle .5 % CMC; for BASOPHIL / EOSINOPHIL / ERYTHROCYTE COUNT / HEMATOCRIT / HEMOGLOBIN / LYMPHOCYTE / MEAN CORPUSCULAR HEMOGLOBIN / MEAN CORPUSCULAR HEMOGLOBIN CONCENTRATION / MEAN CORPUSCULAR VOLUME / MONOCYTE / NEUTROPHIL / PLATELET COUNT: tissue Blood; for ALANINE AMINOTRANSFERASE / ALBUMIN / ALKALINE PHOSPHATASE / ASPARTATE AMINOTRANSFERASE / BLOOD UREA NITROGEN / CHLORIDE / CHOLESTEROL / CREATINE PHOSPHOKINASE / CREATININE / GLUCOSE / PHOSPHORUS / POTASSIUM / SODIUM / TOTAL BILIRUBIN / TOTAL PROTEIN: tissue Plasma
# [1] = 0 mg/kg, 72 h, dose level Control, time 3 day
# [2] = 0 mg/kg, 120 h, dose level Control, time 5 day
# [3] = 10 mg/kg, 72 h, dose level Low, time 3 day
# [4] = 10 mg/kg, 120 h, dose level Low, time 5 day
# [5] = 750 mg/kg, 72 h, dose level High, time 3 day
# [6] = 750 mg/kg, 120 h, dose level High, time 5 day
structure (smiles),measurement,setting,value
OCCN(CCO)c1nc(N2CCCCC2)c2nc(N(CCO)CCO)nc(N3CCCCC3)c2n1 [DIPYRIDAMOLE],BASOPHIL,[1],0%
same,EOSINOPHIL,[1],0%
same,ERYTHROCYTE COUNT,[1],6.34 x10E6/uL
same,HEMATOCRIT,[1],37.62%
same,HEMOGLOBIN,[1],14.82 G/DL
same,LYMPHOCYTE,[1],87.5%
same,MEAN CORPUSCULAR HEMOGLOBIN,[1],23.48 pg
same,MEAN CORPUSCULAR HEMOGLOBIN CONCENTRATION,[1],39.5 G/DL
same,MEAN CORPUSCULAR VOLUME,[1],59.45 fL
same,MONOCYTE,[1],1.67%
same,NEUTROPHIL,[1],10.83%
same,PLATELET COUNT,[1],1074.83 x10E3/uL
same,ALANINE AMINOTRANSFERASE,[1],36.5 u/L
same,ALBUMIN,[1],3.9 G/DL
same,ALKALINE PHOSPHATASE,[1],370.17 u/L
same,ASPARTATE AMINOTRANSFERASE,[1],63.17 u/L
same,BLOOD UREA NITROGEN,[1],16.83 mg/dL
same,CHLORIDE,[1],99.33 MEQ/L
same,CHOLESTEROL,[1],64.33 mg/dL
same,CREATINE PHOSPHOKINASE,[1],127 u/L
same,CREATININE,[1],0.55 mg/dL
same,GLUCOSE,[1],173.5 mg/dL
same,PHOSPHORUS,[1],10.08 mg/dL
same,POTASSIUM,[1],6.23 MEQ/L
same,SODIUM,[1],143.5 MEQ/L
same,TOTAL BILIRUBIN,[1],0.52 mg/dL
same,TOTAL PROTEIN,[1],6.35 G/DL
same,BASOPHIL,[2],0%
same,EOSINOPHIL,[2],0.17%
same,ERYTHROCYTE COUNT,[2],6.12 x10E6/uL
same,HEMATOCRIT,[2],37.08%
same,HEMOGLOBIN,[2],14.82 G/DL
same,LYMPHOCYTE,[2],83.33%
same,MEAN CORPUSCULAR HEMOGLOBIN,[2],24.25 pg
same,MEAN CORPUSCULAR HEMOGLOBIN CONCENTRATION,[2],39.97 G/DL
same,MEAN CORPUSCULAR VOLUME,[2],60.65 fL
same,MONOCYTE,[2],1.5%
same,NEUTROPHIL,[2],15%
same,PLATELET COUNT,[2],1042.83 x10E3/uL
same,ALANINE AMINOTRANSFERASE,[2],46 u/L
same,ALBUMIN,[2],3.82 G/DL
same,ALKALINE PHOSPHATASE,[2],369.5 u/L
same,ASPARTATE AMINOTRANSFERASE,[2],65 u/L
same,BLOOD UREA NITROGEN,[2],16.33 mg/dL
same,CHLORIDE,[2],100.67 MEQ/L
same,CHOLESTEROL,[2],57.17 mg/dL
same,CREATINE PHOSPHOKINASE,[2],130 u/L
same,CREATININE,[2],0.53 mg/dL
same,GLUCOSE,[2],163.33 mg/dL
same,PHOSPHORUS,[2],9.53 mg/dL
same,POTASSIUM,[2],6.27 MEQ/L
same,SODIUM,[2],144.83 MEQ/L
same,TOTAL BILIRUBIN,[2],0.55 mg/dL
same,TOTAL PROTEIN,[2],6.32 G/DL
same,BASOPHIL,[3],0%
same,EOSINOPHIL,[3],0.33%
same,ERYTHROCYTE COUNT,[3],6.75 x10E6/uL
same,HEMATOCRIT,[3],39.77%
same,HEMOGLOBIN,[3],15.7 G/DL
same,LYMPHOCYTE,[3],90.67%
same,MEAN CORPUSCULAR HEMOGLOBIN,[3],23.23 pg
same,MEAN CORPUSCULAR HEMOGLOBIN CONCENTRATION,[3],39.53 G/DL
same,MEAN CORPUSCULAR VOLUME,[3],58.8 fL
same,MONOCYTE,[3],0.33%
same,NEUTROPHIL,[3],8.67%
same,PLATELET COUNT,[3],1406 x10E3/uL
same,ALANINE AMINOTRANSFERASE,[3],42.67 u/L
same,ALBUMIN,[3],4.03 G/DL
same,ALKALINE PHOSPHATASE,[3],406.33 u/L
same,ASPARTATE AMINOTRANSFERASE,[3],71.33 u/L
same,BLOOD UREA NITROGEN,[3],15.67 mg/dL
same,CHLORIDE,[3],100.33 MEQ/L
same,CHOLESTEROL,[3],71 mg/dL
same,CREATINE PHOSPHOKINASE,[3],229.67 u/L
same,CREATININE,[3],0.53 mg/dL
same,GLUCOSE,[3],148.67 mg/dL
same,PHOSPHORUS,[3],11.33 mg/dL
same,POTASSIUM,[3],6.33 MEQ/L
same,SODIUM,[3],144.33 MEQ/L
same,TOTAL BILIRUBIN,[3],0.27 mg/dL
same,TOTAL PROTEIN,[3],6.57 G/DL
same,BASOPHIL,[4],0%
same,EOSINOPHIL,[4],0.5%
same,ERYTHROCYTE COUNT,[4],6.79 x10E6/uL
same,HEMATOCRIT,[4],39%
same,HEMOGLOBIN,[4],15.6 G/DL
same,LYMPHOCYTE,[4],87%
same,MEAN CORPUSCULAR HEMOGLOBIN,[4],23 pg
same,MEAN CORPUSCULAR HEMOGLOBIN CONCENTRATION,[4],40.05 G/DL
same,MEAN CORPUSCULAR VOLUME,[4],57.45 fL
same,MONOCYTE,[4],0.5%
same,NEUTROPHIL,[4],12%
same,PLATELET COUNT,[4],1171.5 x10E3/uL
same,ALANINE AMINOTRANSFERASE,[4],35 u/L
same,ALBUMIN,[4],3.8 G/DL
same,ALKALINE PHOSPHATASE,[4],332.33 u/L
same,ASPARTATE AMINOTRANSFERASE,[4],57 u/L
same,BLOOD UREA NITROGEN,[4],15 mg/dL
same,CHLORIDE,[4],100.67 MEQ/L
same,CHOLESTEROL,[4],70.33 mg/dL
same,CREATINE PHOSPHOKINASE,[4],146.33 u/L
same,CREATININE,[4],0.6 mg/dL
same,GLUCOSE,[4],207 mg/dL
same,PHOSPHORUS,[4],11.67 mg/dL
same,POTASSIUM,[4],5.6 MEQ/L
same,SODIUM,[4],143.67 MEQ/L
same,TOTAL BILIRUBIN,[4],0.43 mg/dL
same,TOTAL PROTEIN,[4],6.33 G/DL
same,BASOPHIL,[5],0%
same,EOSINOPHIL,[5],0.33%
same,ERYTHROCYTE COUNT,[5],6.25 x10E6/uL
same,HEMATOCRIT,[5],37.2%
same,HEMOGLOBIN,[5],14.47 G/DL
same,LYMPHOCYTE,[5],88.33%
same,MEAN CORPUSCULAR HEMOGLOBIN,[5],23.2 pg
same,MEAN CORPUSCULAR HEMOGLOBIN CONCENTRATION,[5],38.9 G/DL
same,MEAN CORPUSCULAR VOLUME,[5],59.57 fL
same,MONOCYTE,[5],1%
same,NEUTROPHIL,[5],10.33%
same,PLATELET COUNT,[5],1166.33 x10E3/uL
same,ALANINE AMINOTRANSFERASE,[5],38 u/L
same,ALBUMIN,[5],3.6 G/DL
same,ALKALINE PHOSPHATASE,[5],276.67 u/L
same,ASPARTATE AMINOTRANSFERASE,[5],56.33 u/L
same,BLOOD UREA NITROGEN,[5],13.33 mg/dL
same,CHLORIDE,[5],99 MEQ/L
same,CHOLESTEROL,[5],75.67 mg/dL
same,CREATINE PHOSPHOKINASE,[5],140 u/L
same,CREATININE,[5],0.53 mg/dL
same,GLUCOSE,[5],163.67 mg/dL
same,PHOSPHORUS,[5],11.63 mg/dL
same,POTASSIUM,[5],6.2 MEQ/L
same,SODIUM,[5],143 MEQ/L
same,TOTAL BILIRUBIN,[5],0.3 mg/dL
same,TOTAL PROTEIN,[5],5.77 G/DL
same,BASOPHIL,[6],0%
same,EOSINOPHIL,[6],0%
same,ERYTHROCYTE COUNT,[6],6.47 x10E6/uL
same,HEMATOCRIT,[6],38.13%
same,HEMOGLOBIN,[6],15 G/DL
same,LYMPHOCYTE,[6],90.33%
same,MEAN CORPUSCULAR HEMOGLOBIN,[6],23.2 pg
same,MEAN CORPUSCULAR HEMOGLOBIN CONCENTRATION,[6],39.33 G/DL
same,MEAN CORPUSCULAR VOLUME,[6],58.97 fL
same,MONOCYTE,[6],0.33%
same,NEUTROPHIL,[6],9.33%
same,PLATELET COUNT,[6],1245.33 x10E3/uL
same,ALANINE AMINOTRANSFERASE,[6],40 u/L
same,ALBUMIN,[6],3.73 G/DL
same,ALKALINE PHOSPHATASE,[6],320.33 u/L
same,ASPARTATE AMINOTRANSFERASE,[6],55 u/L
same,BLOOD UREA NITROGEN,[6],13.33 mg/dL
same,CHLORIDE,[6],98.33 MEQ/L
same,CHOLESTEROL,[6],72 mg/dL
same,CREATINE PHOSPHOKINASE,[6],136.67 u/L
same,CREATININE,[6],0.57 mg/dL
same,GLUCOSE,[6],158 mg/dL
same,PHOSPHORUS,[6],10.37 mg/dL
same,POTASSIUM,[6],6.03 MEQ/L
same,SODIUM,[6],144 MEQ/L
same,TOTAL BILIRUBIN,[6],0.4 mg/dL
same,TOTAL PROTEIN,[6],5.97 G/DL
